Converted amounts (≈) assume the structure as drawn. Where two headings read alike, the source gives them in different places.
Assays:
[1] = In vitro stability of NDGA in freshly drawn whole blood of CD-1 mice; type: in vitro ADME; conditions: CD-1 mouse whole blood
Procedure: The aliquots were treated with MeCN (1:3 ratio) containing a mixture of internal standards (metoprolol, propranolol, and warfarin, each at 500 ng/mL) for protein precipitation. After centrifugation, supernatants were analyzed directly using LC-HRAMS as described below.

[2] = Solubility of NDGA in intestinal fluids; type: physicochemical; conditions: fassgf or other biorelevant
A427 cells = assay: Cell number (CyQuant) after culture in 10% serum from mice orally administered 300 mg/Kg drug, A427; type: cell-based, human; conditions: A427, 72 h
Procedure: (§1) The plates were incubated for 72 h at 37° C. and the relative cell number per well was determined using the CyQuant® reagent. Fluorescence was measured using a Molecular Devices plate reader. […] Serum from five animals was pooled, mixed with culture medium at a concentration of 10% and cells incubated for 72 hours. Cell number was then determined using the CyQuant® assay. […] Differences in cell number for cells cultured in 10% serum was compared by t-test. P values are: A427, p=0.009; A549, p=0.133; and […], p=0.744.

[3] = Metabolite profiling of NDGA in plasma after oral administration in male CD-1 mice (LC-HRAMS, semi-quantitative); type: in vivo
Procedure: The dosing solution was prepared at a nominal concentration of 20 mg/mL; detailed description is shown in Appendix I. The actual concentration, established using HPLC-MS, was 84.9% of nominal (+/−8.9%) and was within the acceptable range according to the study protocol. Animal dosing and blood collection were performed according to the study protocol; details are shown in Appendix II. […] Plasma samples were prepared from blood according to the study protocol. Aliquots of the stabilized (with ascorbic acid) plasma samples were treated with MeCN (1:3 ratio) containing a mixture of internal standards (metoprolol, propranolol, and warfarin, each at 500 ng/mL) for protein precipitation. After centrifugation, clear supernatants were analyzed directly using LC-High Resolution Accurate Mass Spectrometry (HRAMS) as described below.
The samples were separated using HPLC, and two stationary phases were evaluated: ACE pentaflurophenyl C18 (Phenomenex) and dC18 (Waters). […]
Following the pre-scan, the FT analyzer is set to perform a slow survey scan at high resolution (HRMS). […] The decision event selects the two most intense ions detected in the pre-scan which are on the parent mass list. […]
1) Subtraction of the chromatogram of a control sample (solvent control in blank matrix) from the analyzed sample, leading to creation of a “SUB” file (Appendix II). […]

A549 cells = assay: Cell number (CyQuant) after culture in 10% serum from mice orally administered 300 mg/Kg drug, A549; type: cell-based, human; conditions: A549, 72 h
Procedure: as §1

H1975, A427, A549 cells = assay: Cell survival/proliferation (CyQuant) of NSCLC cell lines in 10% serum from untreated mice spiked with drug; type: cell-based, human; conditions: 72 h
Procedure: The CyQuant™ assay (Invitrogen) may be used to differentiate antioxidant activity from anti-proliferative activity. Briefly, the assay is based on dye fluorescence enhancement upon binding to cellular nucleic acids. Cells are lysed by addition of a buffer containing the CyQUANT™-GR dye; there are no washing steps, growth medium changes or long incubations. The resulting fluorescence is proportional to the number of cells in the sample and is measured directly using the TD-700 fluorometer equipped with a fluorescein filter kit. The CyQUANT™ assay can detect much lower cell numbers than Neutral Red or methylene blue assays. […] Thus, cells can be frozen prior to assaying; time course assays are facile and data obtained from samples taken at widely different time intervals can be directly compared. […] Cell number differences were measured using the CyQuant® assay (Invitrogen). H1975, A427, A549 cells were seeded at 1×10^4 cells/well in a 96 well plate and incubated overnight at 37° C. […] The plates were incubated for 72 h at 37° C. and the relative cell number per well was determined using the CyQuant® reagent. Fluorescence was measured using a Molecular Devices plate reader.

[4] = Exposure (plasma concentration by LC-MS/MS) of NDGA after oral administration in male CD-1 mice at 100 mg/kg; type: in vivo; conditions: for concentration at 0.167 h / concentration at 0.5 h / concentration at 2 h / concentration at 4 h: male, CD-1, mouse, plasma, po, 100 mg/kg, PO 100 mg/kg; for concentration at 0.167 h: time point 0.167 hr; for concentration at 0.5 h: time point 0.50 hr; for concentration at 2 h: time point 2.0 hr; for concentration at 4 h: time point 4.0 hr
Procedure: Test compound was dosed at 100 mg/kg from 0.5% MC and 0.5% NaCMC in DI water in separate groups. Analytical stock solutions (1 mg/mL of the free drug) were prepared in DMSO. Standards were made from independently prepared stock solutions of the test compound. Standards and QCs were prepared in male CD-1 mouse plasma containing K2EDTA as an anticoagulant with 10% of 0.1M ascorbic acid in water. Standards were prepared at concentrations of 1000, 500, 100, 50, 10, 5, 1, and 0.5 ng/mL by serial dilution. Standards were treated identically to the study samples. Plasma samples were manually extracted using acetonitrile precipitation. All samples were thawed on ice, and kept on ice during preparation. […] [table] • Flow Rate: 300 μL/min • Injection Volume: 10 μL • Run Time: 4.5 min • Temperature: ambient • Autosampler Wash: #1: 1:1:1 (v:v:v) water:acetonitrile:isopropanol with 0.2% formic acid • #2: 50:50 (v:v) methanol:water [table] […] All data are expressed as ng/mL of the free drug. Samples that were below the limit of quantitation were not used in the calculation of averages. Plasma concentrations versus time data are plotted in FIGS. 24 and 25.

[5] = 0.5% MC in DI water, group average
[6] = 0.5% MC in DI water, group average, read-out: Average plasma concentration
[7] = 0.5% NaCMC in DI water, group average
[8] = 0.5% NaCMC in DI water, group average, read-out: Average plasma concentration

Stability of NDGA in whole blood ([1]; time 0 minutes): 100 | Stability of NDGA in whole blood ([1]; time 15 minutes): 7.2 | Putative metabolites detected upon incubation in whole blood in vitro ([1]; up to 60 minutes): No putative metabolites were detected | Stability in whole blood sample (in words) ([1]; possibly impacted by poor recovery): appears to be unstable | solubility [2]: ~8 µg/mL (≈ 26.5 µM) | AUC ([3]; mouse plasma, 300 mg/kg PO NDGA, trapezoidal approximation, 5-240 min): 28.5 peak area ratio* min | concentration at 0.167 h [4, 5]: 43.4 ng/mL | concentration at 0.5 h [4, 6]: 44.2 ng/mL | concentration at 2 h [4, 5]: 3.08 ng/mL | concentration at 4 h [4, 6]: 3.19 ng/mL | concentration at 0.167 h [4, 7]: 70.8 ng/mL | concentration at 0.5 h [4, 8]: 49.6 ng/mL | concentration at 0.5 h ([4]; 0.5% NaCMC in DI water, individual mice #183-187, read-out: Individual plasma concentration Conc.): 40.9 ng/mL | concentration at 2 h [4, 7]: 1.83 ng/mL | concentration at 4 h [4, 8]: 2.75 ng/mL | concentration at 4 h ([4]; 0.5% NaCMC in DI water, individual mice #183-186, read-out: Individual plasma concentration Conc.): 3.24 ng/mL
SMILES: CC(Cc1ccc(O)c(O)c1)C(C)Cc1ccc(O)c(O)c1 (stereo not shown) [NDGA, nordihydroguaiaretic acid]
Number of cells after culture in 10% serum from treated mice (in words) (A427 cells): decrease was statistically significant | Adverse effects in the dosed animals ([3]; male CD-1 mice, 300 mg/kg PO, 0.5% NaCMC in water): No adverse effects were observed | Number of cells after culture in 10% serum from treated mice (in words) (A549 cells): not significant at the 0.05 level | Concentration above which reduced cell proliferation was observed (H1975, A427, A549 cells; 10% mouse serum spiked with drug): > 10 µM | Cell number reduced (H1975, A427, A549 cells; maximum concentration tested, 10% mouse serum, all cell lines averaged): 33% | Observations and adverse reactions ([4]; 100 mg/kg PO, one mouse (#187) died ~5 min after 30 min sample, possibly stress): No other adverse effects were observed
